These results are taken from ChEMBL document CHEMBL3991601, “The target landscape of clinical kinase drugs” (Science, 2017).

Activity calls are given as the source filed them. For most assays here, no stated cut-off is given here; in the data, actives have a measured Kd and inactives only a lower limit.

Experiment [1] deals with T1, Cysteine--tRNA ligase, cytoplasmic (Homo sapiens, UniProt P49589).
T1 sequence (P49589 whole entry): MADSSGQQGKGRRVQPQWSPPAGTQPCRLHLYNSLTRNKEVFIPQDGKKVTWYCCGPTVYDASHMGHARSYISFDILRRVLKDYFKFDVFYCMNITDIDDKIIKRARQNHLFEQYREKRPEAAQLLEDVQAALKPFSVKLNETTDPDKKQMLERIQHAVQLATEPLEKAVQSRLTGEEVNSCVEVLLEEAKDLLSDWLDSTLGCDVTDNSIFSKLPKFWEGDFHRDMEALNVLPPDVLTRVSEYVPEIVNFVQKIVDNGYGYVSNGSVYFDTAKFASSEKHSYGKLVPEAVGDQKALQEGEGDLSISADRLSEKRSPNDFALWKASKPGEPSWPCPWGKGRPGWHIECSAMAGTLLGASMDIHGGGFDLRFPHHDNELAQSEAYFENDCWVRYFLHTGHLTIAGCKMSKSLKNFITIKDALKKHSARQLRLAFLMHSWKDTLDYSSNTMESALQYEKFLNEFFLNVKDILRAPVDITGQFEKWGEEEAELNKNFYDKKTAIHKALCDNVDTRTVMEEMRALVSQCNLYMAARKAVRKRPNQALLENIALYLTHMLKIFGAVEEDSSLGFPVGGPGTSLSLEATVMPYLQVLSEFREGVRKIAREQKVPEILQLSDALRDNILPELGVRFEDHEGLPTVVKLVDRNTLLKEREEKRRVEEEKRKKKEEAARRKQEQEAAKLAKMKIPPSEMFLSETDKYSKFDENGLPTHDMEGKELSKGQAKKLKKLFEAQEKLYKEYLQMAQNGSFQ

The target in experiment [2] is Serine/threonine-protein kinase/endoribonuclease IRE1 (Homo sapiens, UniProt O75460).
Experiment [3] concerns the target Serine/threonine-protein kinase 16 (Homo sapiens, UniProt O75716).
The target in experiment [4] is Insulin-like growth factor 1 receptor (Homo sapiens, UniProt P08069).
In experiment [5] the target is T2, Acyl-CoA dehydrogenase family member 11 (Homo sapiens, UniProt Q709F0).
T2 sequence (Q709F0 whole entry): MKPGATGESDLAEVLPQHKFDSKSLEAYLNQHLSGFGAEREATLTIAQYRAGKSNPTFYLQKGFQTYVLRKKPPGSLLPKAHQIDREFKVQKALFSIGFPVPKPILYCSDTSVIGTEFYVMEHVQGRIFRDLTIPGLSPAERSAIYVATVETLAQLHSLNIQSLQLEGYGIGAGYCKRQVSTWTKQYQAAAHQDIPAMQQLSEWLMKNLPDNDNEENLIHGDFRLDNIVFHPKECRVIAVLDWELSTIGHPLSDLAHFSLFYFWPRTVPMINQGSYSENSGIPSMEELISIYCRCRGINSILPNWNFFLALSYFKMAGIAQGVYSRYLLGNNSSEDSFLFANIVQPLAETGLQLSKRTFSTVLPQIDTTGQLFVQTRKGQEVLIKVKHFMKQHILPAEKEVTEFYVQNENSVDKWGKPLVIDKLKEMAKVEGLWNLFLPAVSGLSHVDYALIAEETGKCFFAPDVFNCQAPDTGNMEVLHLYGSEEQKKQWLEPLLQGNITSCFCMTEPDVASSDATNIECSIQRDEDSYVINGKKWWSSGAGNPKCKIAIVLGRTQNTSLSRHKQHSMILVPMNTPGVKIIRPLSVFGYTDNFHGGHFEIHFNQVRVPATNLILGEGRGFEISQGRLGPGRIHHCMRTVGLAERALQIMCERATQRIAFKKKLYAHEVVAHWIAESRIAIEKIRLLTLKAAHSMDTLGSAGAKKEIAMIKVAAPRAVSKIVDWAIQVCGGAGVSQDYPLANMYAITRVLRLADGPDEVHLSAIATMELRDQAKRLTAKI

Experiment [6] has as its target Cyclin-dependent kinase 6 (Homo sapiens, UniProt Q00534).
For experiment [7], the target named is Mitogen-activated protein kinase kinase kinase kinase 4 (Homo sapiens, UniProt O95819).
Experiment [8] addresses Citron Rho-interacting kinase (Homo sapiens, UniProt O14578).
The target of experiment [9] is RAC-alpha serine/threonine-protein kinase (Homo sapiens, UniProt P31749).
In experiment [10] the target is Dual specificity protein kinase CLK1 (Homo sapiens, UniProt P49759).
For experiment [11], the target named is T3, ATP-dependent RNA helicase DDX42 (Homo sapiens, UniProt Q86XP3).
T3 sequence (Q86XP3 whole entry): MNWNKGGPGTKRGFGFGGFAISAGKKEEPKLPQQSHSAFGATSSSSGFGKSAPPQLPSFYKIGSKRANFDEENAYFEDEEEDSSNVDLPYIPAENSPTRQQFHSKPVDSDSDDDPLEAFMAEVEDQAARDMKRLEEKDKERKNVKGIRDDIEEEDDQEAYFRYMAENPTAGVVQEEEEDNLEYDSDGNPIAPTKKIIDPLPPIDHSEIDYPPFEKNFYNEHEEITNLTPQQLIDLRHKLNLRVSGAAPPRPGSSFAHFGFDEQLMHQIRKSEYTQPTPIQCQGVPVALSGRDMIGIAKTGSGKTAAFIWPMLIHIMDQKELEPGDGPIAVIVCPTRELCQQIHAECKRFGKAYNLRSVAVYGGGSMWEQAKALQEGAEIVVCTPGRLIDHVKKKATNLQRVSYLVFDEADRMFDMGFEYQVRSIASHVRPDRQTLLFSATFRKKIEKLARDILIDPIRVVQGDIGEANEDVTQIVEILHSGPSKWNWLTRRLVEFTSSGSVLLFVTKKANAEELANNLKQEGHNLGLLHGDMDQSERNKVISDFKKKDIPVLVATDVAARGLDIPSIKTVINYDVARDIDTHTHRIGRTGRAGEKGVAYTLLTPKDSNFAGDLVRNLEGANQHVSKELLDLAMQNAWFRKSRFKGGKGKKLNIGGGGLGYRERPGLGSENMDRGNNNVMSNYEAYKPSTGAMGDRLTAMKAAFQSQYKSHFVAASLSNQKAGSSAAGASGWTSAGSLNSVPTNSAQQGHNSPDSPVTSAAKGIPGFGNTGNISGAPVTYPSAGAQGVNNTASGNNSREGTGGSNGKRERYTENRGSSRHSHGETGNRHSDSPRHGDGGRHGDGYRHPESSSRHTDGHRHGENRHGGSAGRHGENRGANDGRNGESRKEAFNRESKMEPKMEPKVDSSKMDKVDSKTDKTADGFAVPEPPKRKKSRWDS

Chain of Citron Rho-interacting kinase (O14578 whole entry): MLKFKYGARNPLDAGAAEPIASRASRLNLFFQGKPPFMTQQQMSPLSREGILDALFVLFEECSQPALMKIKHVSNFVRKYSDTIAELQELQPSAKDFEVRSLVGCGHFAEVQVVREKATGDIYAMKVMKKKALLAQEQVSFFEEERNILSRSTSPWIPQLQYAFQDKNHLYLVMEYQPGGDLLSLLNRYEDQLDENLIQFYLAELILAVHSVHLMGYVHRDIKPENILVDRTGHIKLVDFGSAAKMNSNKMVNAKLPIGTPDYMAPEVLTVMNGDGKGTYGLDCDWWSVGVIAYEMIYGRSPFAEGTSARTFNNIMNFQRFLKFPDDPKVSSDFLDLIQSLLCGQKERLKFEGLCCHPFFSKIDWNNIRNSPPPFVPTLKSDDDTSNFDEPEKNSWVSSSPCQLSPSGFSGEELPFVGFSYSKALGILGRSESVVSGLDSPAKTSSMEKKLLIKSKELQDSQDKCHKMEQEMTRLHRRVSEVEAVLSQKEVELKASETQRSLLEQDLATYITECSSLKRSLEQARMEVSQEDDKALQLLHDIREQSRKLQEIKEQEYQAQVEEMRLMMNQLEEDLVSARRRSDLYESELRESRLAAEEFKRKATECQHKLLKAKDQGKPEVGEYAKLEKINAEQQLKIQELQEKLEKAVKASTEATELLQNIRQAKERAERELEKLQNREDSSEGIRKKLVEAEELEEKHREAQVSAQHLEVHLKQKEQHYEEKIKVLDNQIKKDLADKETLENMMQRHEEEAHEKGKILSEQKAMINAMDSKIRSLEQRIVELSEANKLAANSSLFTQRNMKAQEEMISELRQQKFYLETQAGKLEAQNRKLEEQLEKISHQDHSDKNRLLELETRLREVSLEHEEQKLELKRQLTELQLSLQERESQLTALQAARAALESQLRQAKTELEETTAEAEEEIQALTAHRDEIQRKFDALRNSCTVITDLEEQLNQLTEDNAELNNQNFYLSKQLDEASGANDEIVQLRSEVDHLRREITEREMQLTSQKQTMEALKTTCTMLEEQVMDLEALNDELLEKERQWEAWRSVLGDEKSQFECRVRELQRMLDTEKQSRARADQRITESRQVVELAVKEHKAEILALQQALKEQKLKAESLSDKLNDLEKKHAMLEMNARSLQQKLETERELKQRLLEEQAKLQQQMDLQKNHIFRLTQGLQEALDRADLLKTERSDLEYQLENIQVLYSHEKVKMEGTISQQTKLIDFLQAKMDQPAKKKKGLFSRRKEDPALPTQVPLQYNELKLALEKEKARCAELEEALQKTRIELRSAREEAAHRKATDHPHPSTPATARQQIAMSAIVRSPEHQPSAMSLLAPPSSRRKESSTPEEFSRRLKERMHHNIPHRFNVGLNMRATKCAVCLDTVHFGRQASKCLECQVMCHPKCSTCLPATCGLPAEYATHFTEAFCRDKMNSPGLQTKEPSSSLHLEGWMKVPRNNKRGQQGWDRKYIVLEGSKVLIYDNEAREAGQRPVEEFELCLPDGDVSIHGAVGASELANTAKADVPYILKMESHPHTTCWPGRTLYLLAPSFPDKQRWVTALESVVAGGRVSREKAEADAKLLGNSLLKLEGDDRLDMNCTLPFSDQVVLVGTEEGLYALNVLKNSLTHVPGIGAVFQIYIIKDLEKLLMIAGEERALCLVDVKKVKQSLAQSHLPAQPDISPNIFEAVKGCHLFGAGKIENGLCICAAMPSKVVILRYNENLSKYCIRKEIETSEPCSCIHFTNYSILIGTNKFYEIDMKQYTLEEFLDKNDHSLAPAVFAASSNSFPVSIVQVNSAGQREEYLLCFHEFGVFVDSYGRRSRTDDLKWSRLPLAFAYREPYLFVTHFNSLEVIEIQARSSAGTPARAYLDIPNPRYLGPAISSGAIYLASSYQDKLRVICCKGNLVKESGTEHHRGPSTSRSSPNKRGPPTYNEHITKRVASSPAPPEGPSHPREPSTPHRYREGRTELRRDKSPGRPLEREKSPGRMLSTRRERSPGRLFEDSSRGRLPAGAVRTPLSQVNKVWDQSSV
Chain of RAC-alpha serine/threonine-protein kinase (P31749 whole entry): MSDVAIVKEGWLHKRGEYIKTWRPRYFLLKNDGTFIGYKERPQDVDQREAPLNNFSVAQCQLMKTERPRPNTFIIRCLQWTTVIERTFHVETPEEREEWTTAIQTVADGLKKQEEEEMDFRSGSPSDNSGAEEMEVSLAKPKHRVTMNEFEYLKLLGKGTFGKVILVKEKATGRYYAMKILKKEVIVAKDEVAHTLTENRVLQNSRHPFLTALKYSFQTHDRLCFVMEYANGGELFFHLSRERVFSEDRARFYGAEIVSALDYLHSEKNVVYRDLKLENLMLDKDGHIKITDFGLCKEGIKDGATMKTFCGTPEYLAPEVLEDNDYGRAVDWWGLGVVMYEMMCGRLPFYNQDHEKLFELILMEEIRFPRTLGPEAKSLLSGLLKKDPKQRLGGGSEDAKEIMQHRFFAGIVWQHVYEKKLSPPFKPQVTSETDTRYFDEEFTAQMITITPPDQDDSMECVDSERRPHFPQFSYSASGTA
Chain of Mitogen-activated protein kinase kinase kinase kinase 4 (O95819 whole entry): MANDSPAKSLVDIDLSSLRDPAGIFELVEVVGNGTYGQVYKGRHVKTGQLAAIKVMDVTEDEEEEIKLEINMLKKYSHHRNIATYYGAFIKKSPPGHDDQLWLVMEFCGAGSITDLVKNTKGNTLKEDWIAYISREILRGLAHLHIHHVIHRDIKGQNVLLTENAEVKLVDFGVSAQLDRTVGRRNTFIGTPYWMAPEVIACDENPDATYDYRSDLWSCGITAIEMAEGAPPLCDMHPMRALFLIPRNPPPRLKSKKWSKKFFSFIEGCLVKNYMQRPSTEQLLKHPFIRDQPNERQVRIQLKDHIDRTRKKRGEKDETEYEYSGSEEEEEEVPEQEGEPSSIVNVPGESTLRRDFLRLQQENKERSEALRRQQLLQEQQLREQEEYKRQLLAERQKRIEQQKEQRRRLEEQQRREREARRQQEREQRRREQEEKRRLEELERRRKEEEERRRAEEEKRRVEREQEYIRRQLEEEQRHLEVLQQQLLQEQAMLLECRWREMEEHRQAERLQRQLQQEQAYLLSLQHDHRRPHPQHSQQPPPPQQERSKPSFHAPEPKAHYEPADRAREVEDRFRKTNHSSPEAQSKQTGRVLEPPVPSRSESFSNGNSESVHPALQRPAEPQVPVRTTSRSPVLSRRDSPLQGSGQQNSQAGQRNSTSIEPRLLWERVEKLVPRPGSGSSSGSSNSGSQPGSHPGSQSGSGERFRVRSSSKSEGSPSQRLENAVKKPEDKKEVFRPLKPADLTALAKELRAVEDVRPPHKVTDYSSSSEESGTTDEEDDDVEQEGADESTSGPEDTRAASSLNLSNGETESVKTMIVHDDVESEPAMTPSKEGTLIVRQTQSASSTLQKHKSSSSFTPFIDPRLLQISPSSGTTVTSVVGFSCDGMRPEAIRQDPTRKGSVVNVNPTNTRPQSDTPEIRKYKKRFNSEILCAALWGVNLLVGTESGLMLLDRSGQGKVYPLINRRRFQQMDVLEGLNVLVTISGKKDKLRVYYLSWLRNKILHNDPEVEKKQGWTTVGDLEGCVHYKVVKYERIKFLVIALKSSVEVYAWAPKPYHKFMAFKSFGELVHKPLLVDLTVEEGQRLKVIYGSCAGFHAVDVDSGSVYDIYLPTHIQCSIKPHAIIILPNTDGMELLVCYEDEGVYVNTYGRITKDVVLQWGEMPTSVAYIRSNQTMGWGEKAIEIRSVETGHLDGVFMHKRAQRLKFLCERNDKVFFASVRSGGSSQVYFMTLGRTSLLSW
Chain of Serine/threonine-protein kinase/endoribonuclease IRE1 (O75460 whole entry): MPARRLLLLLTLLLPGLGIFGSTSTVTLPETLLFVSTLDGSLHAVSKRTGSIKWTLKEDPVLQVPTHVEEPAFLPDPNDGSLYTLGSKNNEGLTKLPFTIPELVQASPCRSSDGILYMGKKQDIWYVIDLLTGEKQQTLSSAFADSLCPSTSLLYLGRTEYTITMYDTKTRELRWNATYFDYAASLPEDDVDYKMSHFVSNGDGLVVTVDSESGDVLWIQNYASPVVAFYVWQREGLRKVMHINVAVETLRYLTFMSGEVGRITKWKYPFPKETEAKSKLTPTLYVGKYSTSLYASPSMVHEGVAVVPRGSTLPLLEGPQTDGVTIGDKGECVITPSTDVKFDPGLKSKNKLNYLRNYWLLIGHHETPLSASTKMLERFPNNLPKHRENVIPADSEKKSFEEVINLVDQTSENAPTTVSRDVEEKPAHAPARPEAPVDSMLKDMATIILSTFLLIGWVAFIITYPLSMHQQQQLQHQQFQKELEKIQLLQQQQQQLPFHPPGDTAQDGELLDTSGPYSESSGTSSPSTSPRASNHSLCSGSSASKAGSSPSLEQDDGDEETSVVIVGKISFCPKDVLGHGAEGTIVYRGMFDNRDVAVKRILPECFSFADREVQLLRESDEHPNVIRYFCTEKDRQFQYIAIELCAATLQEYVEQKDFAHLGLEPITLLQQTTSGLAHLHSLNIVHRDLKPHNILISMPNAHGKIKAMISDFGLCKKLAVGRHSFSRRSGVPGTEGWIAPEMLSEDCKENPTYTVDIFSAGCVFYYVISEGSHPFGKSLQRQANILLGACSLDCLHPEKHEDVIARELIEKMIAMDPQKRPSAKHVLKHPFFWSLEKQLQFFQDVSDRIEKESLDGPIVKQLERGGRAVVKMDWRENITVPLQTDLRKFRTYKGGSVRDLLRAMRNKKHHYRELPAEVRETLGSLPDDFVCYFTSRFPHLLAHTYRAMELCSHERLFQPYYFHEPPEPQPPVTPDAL
Chain of Serine/threonine-protein kinase 16 (O75716 whole entry): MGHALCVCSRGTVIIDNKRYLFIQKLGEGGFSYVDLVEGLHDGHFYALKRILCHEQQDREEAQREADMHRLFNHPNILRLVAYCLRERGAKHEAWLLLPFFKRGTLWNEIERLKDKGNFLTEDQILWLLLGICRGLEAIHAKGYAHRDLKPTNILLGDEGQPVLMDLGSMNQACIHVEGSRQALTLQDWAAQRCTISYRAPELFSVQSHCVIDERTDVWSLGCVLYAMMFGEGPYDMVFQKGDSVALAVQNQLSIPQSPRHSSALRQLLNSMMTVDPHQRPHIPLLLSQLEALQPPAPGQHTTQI

For orientation: Kd means the concentration at which binding is half-saturated. For `CCc1nc(C(N)=O)c(Nc2ccc(N3CCC(N4CCN(C)CC4)CC3)c(OC)c2)nc1NC1CCOCC1` [GILTERITINIB], the Kd in [1] is > 30 µM (inactive); in experiment [2], > 30 µM (inactive); in experiment [3], 0.295 µM (active); in experiment [4], > 30 µM (inactive); in experiment [5] it was > 30 µM (inactive); in [6] it was > 30 µM (inactive). The dissociation constant Kd in [7] is 0.202 µM (active); in [8], 2.35 µM (active); in experiment [9], > 30 µM (inactive).
Consider `COc1cc(F)c(F)c(Nc2ccc(I)cc2F)c1NS(=O)(=O)C1(C[C@H](O)CO)CC1` [REFAMETINIB], for which the Kd in [1], in experiment [2], in experiment [3], in experiment [4], in experiment [5] and in experiment [6] was > 30 µM (inactive) in each case. In addition, the Kd in experiment [10], in experiment [7], in experiment [8] and in experiment [9] was > 30 µM (inactive) throughout.
As to `O[C@H]1CC[C@H](Nc2ncc3nc(Nc4c(F)cc(F)cc4F)n([C@H]4CCOC4)c3n2)CC1` [TANZISERTIB], the Kd in experiment [2] was 1.36 µM (active); in experiment [3] it was > 30 µM (inactive); in experiment [4] it was > 30 µM (inactive); in [5], > 30 µM (inactive); in experiment [6] it was > 30 µM (inactive); in experiment [10] it was > 30 µM (inactive). Moreover, the Kd in [7], in [8] and in experiment [9] was > 30 µM (inactive) each time.
With `Cc1cc(-c2cc(OC(=O)c3ccccc3)ccc2Cl)cc2nnc(Nc3ccc(OCCN4CCCC4)cc3)nc12` [TG100-801], the Kd in experiment [2], in experiment [3], in experiment [4], in experiment [5], in experiment [6] and in [10] was > 30 µM (inactive) throughout. For the same molecule, the Kd in experiment [7], in [8] and in [9] was > 30 µM (inactive) each time.
As for `O=C(Nc1ccc(OC(F)(F)F)cc1)c1sccc1NCc1ccnc2ccccc12` [OSI-930], the Kd in [1], in experiment [2], in experiment [3], in experiment [4], in experiment [5] and in experiment [6] was > 30 µM (inactive) each time. Moreover, the Kd in [10], in [7], in experiment [8] and in experiment [9] was > 30 µM (inactive) throughout.
Consider `Cc1cc(C(=O)Nc2cc(Oc3ccc4nc(NC(=O)C5CC5)cn4n3)ccc2C)n(C)n1` [TAK-593], for which the Kd in experiment [2], in experiment [3], in experiment [4], in [5], in [6] and in experiment [10] was > 30 µM (inactive) each time. Besides, the Kd in [7], in [8] and in experiment [9] was > 30 µM (inactive) throughout.
With `O=C(O)c1ccc2c(c1)nc(Nc1cccc(Cl)c1)c1ccncc12` [SILMITASERTIB], the Kd in [1], in [2], in [3], in [4], in [6] and in experiment [7] was > 30 µM (inactive) each time. The Kd in [8] and in experiment [9] was > 30 µM (inactive) in each case.
With `N#CCNC(=O)c1ccc(-c2ccnc(Nc3ccc(N4CCOCC4)cc3)n2)cc1` [MOMELOTINIB], the Kd in experiment [1] is > 30 µM (inactive); in [2], > 30 µM (inactive); in experiment [3], 1.28 µM (active); in experiment [4], > 30 µM (inactive); in [5] it was > 30 µM (inactive); in experiment [6] it was 3.36 µM. Further, the Kd in [10] is 0.918 µM; in experiment [8] it was 0.313 µM (active); in experiment [9], > 30 µM (inactive); in [11], > 30 µM (inactive).
Take `C=CCN(/C=C1/C(=O)O[C@H](COC)[C@@]2(C)C1=C(O)C(=O)C1=C2[C@H](OC(C)=O)C[C@]2(C)C(=O)CC[C@@H]12)CC=C` [SONOLISIB]: the Kd in [2], in experiment [3], in experiment [4], in experiment [5], in experiment [6] and in experiment [10] was > 30 µM (inactive) each time. Besides, the Kd in [7], in experiment [8] and in experiment [9] was > 30 µM (inactive) throughout.
Consider `COc1cc(Nc2ncc(F)c(Nc3ccc4c(n3)N(COP(=O)(O)O)C(=O)C(C)(C)O4)n2)cc(OC)c1OC` [FOSTAMATINIB], for which the Kd in experiment [1], in experiment [2], in experiment [4], in [5], in [6] and in experiment [10] was > 30 µM (inactive) in each case. The Kd in experiment [7], in experiment [8] and in [9] was > 30 µM (inactive) throughout.
Consider `CC[C@@](C)(Nc1ccnc(-c2c[nH]c3ncccc23)n1)C(=O)NCC(F)(F)F` [DECERNOTINIB], for which the Kd in experiment [2], in experiment [3], in experiment [4], in experiment [5], in [6] and in experiment [10] was > 30 µM (inactive) in each case. The Kd in experiment [7], in experiment [8] and in [9] was > 30 µM (inactive) in each case.
